We go through four compounds from patent publication US9643928B2, “Crystalline forms of {[1-cyano-5-(4-chlorophenoxy)-4-hydroxy-isoquinoline-3-carbonyl]-amino}-acetic acid” (FIBROGEN, INC., priority 2013, dated 2017).

“Also recorded” adds a separate entry of the source.

Series [1] can be described thus: Reflux of Form 1 in water, monitored by XRPD. The class given is physicochemical. From the text: Form 1 was refluxed in water and the crystallinity of the solid was monitored by XRPD.
Series [2] can be described thus: Relative stability of Form 1 and Form 2 (summary of Example 3). It counts as physicochemical. The text has this: The relative stability of Form 1 and Form 2 have been studied under different conditions (see Example 3).
Series [3] can be described thus: Maturation of Form 1 in water with or without seeds of Form 2, XRPD. The class given is physicochemical. Conditions: 50° C./room temperature (4 h-cycles), 75% RH. On the procedure:
A suspension of a solid mixture of Form 1 and Form 2 (1:1) in water was incubated at 50° C./room temperature (4 h-cycles), and at 75% RH for four days. After this time, the solid was analysed by XRPD. The crystalline pattern matched Form 2, and no traces of Form 1 were detected in this analysis.
Form 1 was suspended in water and incubated at 50° C./room temperature (4 h-cycles), and at 75% RH. In this case, the transformation of Form 1 into Form 2 was slower.

Series [4] is described as follows: Stability of Form 1 in water at 25° C., XRPD. The class given is physicochemical. Particulars: six days. The method, then: Form 1 was suspended in water at 25° C., and the crystallinity of the solid was analysed by XRPD over a period of time.
The test system of series [5] is Female Wistar rats with subtotal nephrectomy. Description: Anemia induced by chronic kidney disease (5/6 nephrectomy, rat remnant kidney model). The class given is in vivo. The text has this: Female Wistar rats underwent subtotal nephrectomy (⅚) surgery to induce chronic kidney disease by ligating the left kidney to infarct ⅔ of the kidney while the right kidney underwent simultaneous total nephrectomy. As a control, additional animals underwent a sham surgery, without nephrectomy. Five weeks after surgery, anemia and chronic kidney disease in the nephrectomized animals were confirmed by clinical pathology and animals were then assigned to one of three treatment groups (n=8/group) and treated with 0 (vehicle), 8 or 20 mg/kg Compound A. The sham group (n=8) received 0 mg/kg (vehicle). Starting 6 weeks after surgery, all animals were dosed TIW (on Monday, Wednesday, and Friday) via oral gavage for 2 weeks. Whole blood samples were collected 5, 7, and 8 weeks after surgery.

A further series relates to male Swiss Webster mice. Briefly: Hemoglobin and hematocrit levels in mice after 1 week of intermittent oral dosing. The class given is in vivo. On the procedure:
Compound A (2, 6, 20, 60, 100 or 200 mg/kg as an oral gavage) or vehicle control were administered orally 3 times in 1 week on Monday, Wednesday, and Friday (4-8 male Swiss Webster mice/group). Three days after the last dose, all animals were euthanized and blood and serum were collected for complete blood counts (CBC) and serum chemistry.

The test system of series [6] is Female Lewis rats challenged with peptidoglycan-polysaccharide polymers (PG-PS). Briefly: Anemia of chronic disease model (PG-PS challenge). It counts as in vivo. The method, then:
Female Lewis rats were challenged with peptidoglycan-polysaccharide polymers (PG-PS) to induce arthritis and anemia. Arthritis and anemia were allowed to develop for 28 days prior to initiation of treatment with Compound A (oral gavage, 8 or 20 mg/kg) or vehicle (n=8/group). Treatments were administered 3 times per week (Monday, Wednesday, and Friday), for 2 weeks. Progression of the model was monitored by measurement of paw swelling and hematology parameters. Blood samples were analyzed for hematopoiesis and iron parameters. The study also included three non-challenged control groups (n=5/group) that were injected with saline rather than PG-PS and then treated with vehicle or Compound A (8 or 20 mg/kg) as described for the PG-PS animals. […] In addition to anemia, PG-PS-challenged rats developed systemic inflammation and arthritis, as indicated by elevated white blood cell counts and swelling of the extremities.

In a further series the test system is healthy male volunteers. Briefly: Single oral dose in healthy male volunteers: erythropoietin, reticulocyte and hemoglobin levels. The class given is in vivo, human. On the procedure: A single dose of Compound A (Form 2, capsules) was administered orally to healthy male volunteers. Compound A was provided in 1 mg and 5 mg capsules with the dose being rounded to the nearest whole capsule. In cohorts 1-4 the doses were 0.05 mg/kg, 0.15 mg/kg, 0.3 mg/kg and 0.4 mg/kg respectively. The time points for blood collection were: predose, 8, 12, 16, 20, 24, 30, 48, 72, 96 and 120 hours, days 8, 10, 12, and 15 post dose.

Series [7] can be described thus: Stability of solid forms in humidity chamber at 40° C. and 75% RH, re-analysed by XRPD. Particulars: one week. The class given is physicochemical. The method, then:
The solids were then stored in the humidity chamber at 40° C. and 75% RH for a week to assess their stability under these conditions, and re-analysed by XRPD.

Setting [8] is: 8 and 20 mg/kg oral TIW, after 2 weeks of treatment.
The mark [9] stands for this setting: all dose groups 2-200 mg/kg, oral gavage 3 times in 1 week, three days after last dose.
Setting [10] is: 8 or 20 mg/kg oral 3 times per week for 2 weeks, statistically significant at 20 mg/kg.
Setting [11] is: cohort 2, 0.15 mg/kg single oral dose.
Where [12] appears, read: cohort 3, 0.3 mg/kg single oral dose.

Turning to `N#Cc1nc(C(=O)NCC(=O)O)c(O)c2c(Oc3ccc(Cl)cc3)cccc12` [Form 1, {[1-cyano-5-(4-chlorophenoxy)-4-hydroxy-isoquinoline-3-carbonyl]-amino}-acetic acid], the “crystallinity by XRPD on reflux in water” value in series [1] (after 2.5 h) is reported as “several new diffraction peaks corresponding to Form 2”; in [1] (after 10 h at reflux), “transformation of Form 1 into Form 2 was complete”. Further, in series [2], the hygroscopicity entry is given as “low hygroscopicity”. For the same compound, the stability to humidity result in series [2] is on record as “stable”. The “conversion of form on maturation in isopropyl acetate (IPAc)” value in [2] (5° C., 25° C. and 50° C.) is “converts to Form 2”. Further, in series [2] (heating above 200° C.), the “conversion of form on heating” value is recorded as “converts to Form 2”. In addition, the “transformation on maturation in water without seeds of Form 2” value in series [3] (after 4 days) was “clear indication of Form 2 forming”; in [3] (after 15 days) it was “completely turned to Form 2”. Moreover, in series [4], the “changes in crystalline pattern in aqueous suspension” value is listed as “remains unchanged; also recorded: No changes”.

As to `N#Cc1nc(C(=O)NCC(=O)O)c(O)c2c(Oc3ccc(Cl)cc3)cccc12` [Compound A, {[1-cyano-5-(4-chlorophenoxy)-4-hydroxy-isoquinoline-3-carbonyl]-amino}-acetic acid], the “Hb, HCT and RBC (all three parameters) relative to non-anemic sham control group” value in series [5] (20 mg/kg oral TIW, 2 weeks) is “normalized”. Also, the “MCV in nephrectomized animals” value in [5] (20 mg/kg, after 2 weeks of treatment) was “significantly higher”. For the same compound, the “HCT compared to vehicle controls” value in [5] (setting [8]) is recorded as “significantly elevated”. Besides, in series [5] (setting [8]), the “Hb compared to vehicle controls” value is on record as “significantly elevated”. The “RBC compared to vehicle controls” value in series [5] (setting [8]) is given as “significantly elevated”. Moreover, in [5] (8 and 20 mg/kg, not significant), the “MCH values in nephrectomized animals” value was “higher”. Moreover, the “anemia associated with 5/6 nephrectomy” value in series [5] (intermittent treatment for 2 weeks) was “corrected”. In addition, the “Mean hematocrit (HCT) compared to vehicle control” value in the series on male Swiss Webster mice (setting [9]) was “significantly higher”. In addition, the “Mean hemoglobin (Hb) compared to vehicle control” value in the series with male Swiss Webster mice (setting [9]) was “significantly higher”. Besides, in the series with male Swiss Webster mice (setting [9]), the “Mean red blood counts (RBC) compared to vehicle control” value is “significantly higher”. For the same compound, the Hb levels increase entry in the series on male Swiss Webster mice (lowest dose tested, 2 mg/kg, 1-week study) is “more than 1 g/dL”. Moreover, the “HCT decrease induced by PG-PS challenge” value in series [6] (setting [10]) is reported as “corrected”. In series [6] (setting [10]), the “Hb decrease induced by PG-PS challenge” value is “corrected”. In addition, the “MCH decrease induced by PG-PS challenge” value in series [6] (setting [10]) is listed as “corrected”. The “RBC decrease induced by PG-PS challenge” value in series [6] (setting [10]) was “corrected”. The “TIBC increase induced by PG-PS challenge” value in series [6] (setting [10]) was “corrected”. Also, the “anemia associated with anemia of chronic disease” value in [6] (intermittent treatment) is recorded as “significantly alleviated”. For the same compound, the “change in mean hemoglobin levels” value with healthy male volunteers (Cohort 1, 0.05 mg/kg, Day 0 to Day 8) is “did not change”. The “Reticulocyte values (% baseline ± SD)” value was 104 ± 8 % baseline in the series with healthy male volunteers (Cohort 1, 0.05 mg/kg, Day 3); 111 ± 10 % baseline with healthy male volunteers (Cohort 1, 0.05 mg/kg, Day 5); 120 ± 20 % baseline with healthy male volunteers (Cohort 1, 0.05 mg/kg, Day 8); 111 ± 19 % baseline in the series on healthy male volunteers (Cohort 2, 0.15 mg/kg, Day 3); 121 ± 22 % baseline in the series with healthy male volunteers (Cohort 2, 0.15 mg/kg, Day 5); 127 ± 3 % baseline in the series with healthy male volunteers (Cohort 3, 0.3 mg/kg, Day 3). Besides, the “Reticulocyte values (% baseline ± SD)” value is recorded as 141 ± 22 % baseline with healthy male volunteers (Cohort 3, 0.3 mg/kg, Day 5); 163 ± 21 % baseline in the series with healthy male volunteers (Cohort 4, 0.4 mg/kg, Day 3); 134 ± 22 % baseline in the series on healthy male volunteers (Cohort 4, 0.4 mg/kg, Day 5); 180 ± 53 % baseline in the series on healthy male volunteers (cohort 2, 0.15 mg/kg, Day 8); 231 ± 40 % baseline with healthy male volunteers (cohort 3, 0.3 mg/kg, Day 8); 376 ± 60 % baseline in the series with healthy male volunteers (cohort 4, 0.4 mg/kg, Day 8). Besides, the “time of peak erythropoietin levels” value with healthy male volunteers (cohort 1, 0.05 mg/kg single oral dose) is listed as “approximately 16.8 hours”. Further, the “mean maximum plasma erythropoietin concentration” value in the series with healthy male volunteers (cohort 1, 0.05 mg/kg single oral dose, baseline mean 11.4 mIU/mL) is 27.2 mIU/mL; in the series on healthy male volunteers (cohort 4, 0.4 mg/kg single oral dose, pending re-analysis of one sample above upper limit of quantitation), 2,900 mIU/mL. The “median maximum erythropoietin concentration” value with healthy male volunteers (setting [11]) was 81.7 mIU/ml. The “time of peak erythropoietin levels (mean)” value in the series on healthy male volunteers (setting [11]) is 14 h; in the series on healthy male volunteers (setting [12]), 23 h. In addition, the “time until mean erythropoietin levels trended back to baseline” value in the series on healthy male volunteers (setting [11]) is given as “approximately 5 days”. Also, the mean hemoglobin increase in the series with healthy male volunteers (cohort 2, 0.15 mg/kg, Day 8) is on record as 0.3 g/dL; in the series on healthy male volunteers (cohort 3, 0.3 mg/kg, Day 8), 0.8 g/dL; in the series on healthy male volunteers (cohort 4, 0.4 mg/kg, Day 8), 0.7 g/dL; with healthy male volunteers (cohort 4, 0.4 mg/kg, Day 15), 1.1 g/dL. Moreover, in the series on healthy male volunteers (setting [12]), the “average maximum erythropoietin concentration” value is reported as “approximately 620 mIU/mL”. The “median time to maximum EPO concentration” value in the series on healthy male volunteers (cohort 4, 0.4 mg/kg single oral dose) came out at 20 h.

As to `N#Cc1nc(C(=O)NCC(=O)O)c(O)c2c(Oc3ccc(Cl)cc3)cccc12` [XRPD 7], in series [7], the “Stability at 40° C./75% RH (form found by XRPD)” value is “changed into Form 2”.

For the compound `N#Cc1nc(C(=O)NCC(=O)O)c(O)c2c(Oc3ccc(Cl)cc3)cccc12` [Form 2, {[1-cyano-5-(4-chlorophenoxy)-4-hydroxy-isoquinoline-3-carbonyl]-amino}-acetic acid], in series [2], the hygroscopicity result was “low hygroscopicity” and the stability to humidity entry is listed as “stable”. In addition, in series [2] (conditions investigated), the relative thermodynamic stability result is given as “thermodynamically more stable than Form 1” and the “transformation of Form 2 into Form 1” value was “has not been observed”. For the same compound, the “Stability at 40° C./75% RH (form found by XRPD)” value in series [7] was “remained unchanged; also recorded: Form 2”.
